Assays:
Assay type in all cases: in vivo, human
[1] = Pharmacokinetic study of oral teriparatide tablet in healthy volunteers (Example 1)
Description: An open label comparative pharmacokinetic study was performed in healthy volunteers over the course of 3 months. Each volunteer received—in each of two visits—the same oral tablet containing 0.75 mg of teriparatide, a recombinant form of parathyroid hormone (1-34).
The formulation was composed of teriparatide (0.75 mg), SNAC (sodium 8-N-(2-hydroxybenzoyl) aminocaprylate), soybean trypsin inhibitor (SBTI) and a small amount of magnesium stearate.
Tablets were administered in the morning after an 8-hour overnight fast and immediately followed by 150 ml of water. At each visit a standard meal was provided 3 hours after drug administration. […] There was a two weeks period between the visits.
(§1) To determine parathyroid hormone (1-34) (PTH(1-34)) concentrations, blood samples (4 ml each) were drawn via an indwelling catheter from the forearm vein at predetermined time points during each visit. The cannula was flushed with 1.5 ml normal saline after each sampling. In addition, to avoid sample dilution, 1 ml of blood was drawn and discarded before the next sample. The blood samples were taken at following times: baseline (predose), 10 minutes, 15 minutes, 20 minutes, 30 minutes, 45 minutes, 60 minutes, 75 minutes, 90 minutes, 105 minutes, 2 hours, 3 hours, 4 hours and 5 hours post-administration. Each blood sample was collected into a single tube containing EDTA (ethylenediaminetetraacetic acid) and placed on ice. Within 15 minutes of blood collection, samples were centrifuged for 10 minutes at 4° C. (2500 rotations per minute) and the plasma was separated and divided into two or three aliquots. Each aliquot was transferred into appropriately labeled polypropylene tubes and stored at approximately −20° C. pending analysis. PTH (1-34) levels were measured using an IDS-iSYS automated assay for the measurement of intact PTH (1-34) in human plasma or serum.

[2] = Phase I clinical trial of oral teriparatide formulations, plasma PTH (1-34) versus subcutaneous injection (Example 2)
Description: A Phase I clinical study of exemplary oral formulations comprising teriparatide (parathyroid hormone (1-34)) was conducted at the Hadassah Clinical Research Center. 42 healthy volunteers were included throughout the study.
The formulation was composed of teriparatide (200, 400, 680, 1400 or 1800μ.g), SNAC (sodium 8-N-(2-hydroxybenzoyl) aminocaprylate), soybean trypsin inhibitor and magnesium stearate.
Tablets were administered in the morning after an 8-hour overnight fast and immediately followed by 150 ml of water. At each visit a standard meal was provided 3 hours after drug administration.
as §1, with “hormone” for “hormone (1-34) (PTH(1-34))”, “points.” for “points during each visit.”, “(predose),” for “(predose), 10 minutes,”, “15” for “15 minutes, 20”
Oral administration of teriparatide was performed as described hereinabove at doses of 200, 400, 680, 1400 or 1800 μg. The Cmax of PTH (1-34) for each orally administered dose was compared with the Cmax of PTH (1-34) for subcutaneous injection of 20 μg teriparatide.

[3] = system: cAMP, a known marker of PTH activity; assay: Plasma cAMP levels after teriparatide administration (marker of PTH activity); details: FIG. 4
Description: In addition, plasma levels of cAMP, a known marker of PTH activity, were determined in order to confirm biological activity of administered PTH. cAMP plasma levels were measured following oral administration of 680 μg teriparatide or subcutaneous injection of 20 μg teriparatide, as described hereinabove.

- Cmax after 1st administration ([1]; oral tablet 0.75 mg teriparatide with SNAC, SBTI, magnesium stearate, fasted healthy volunteers, plasma PTH (1-34), one table row per individual subject (A, B, C)): 35 picogram/ml
- time for parathyroid hormone (1-34) levels to return to baseline levels after tablet administration ([1]; oral tablet 0.75 mg teriparatide, FIGS. 1A-1C): ≤ 60 min
- time after administration at which peak concentration (Cmax) occurred ([1]; oral tablet 0.75 mg teriparatide, all subjects and administrations, Table 3, FIGS. 1A-1C): ≤ 20 min
- Cmax after 2nd administration ([1]; same oral tablet 0.75 mg teriparatide, second visit two weeks later, plasma PTH (1-34), one table row per individual subject (A, B, C)): 36 picogram/ml
- decline of PTH levels following oral administration compared with subcutaneous administration ([2]; oral 1800 μg versus subcutaneous 20 μg teriparatide, FIG. 3): declined considerably more rapidly
- dose dependence of Cmax of PTH (1-34) following oral administration ([2]; oral doses 200, 400, 680, 1400 or 1800 μg teriparatide, FIG. 2): proportional to the dose
- oral dose providing a Cmax equivalent to that of subcutaneous administration of 20 μg teriparatide ([2]; oral tablets with SNAC, soybean trypsin inhibitor, magnesium stearate, FIG. 2): roughly 750 μg
Structure (SMILES): CC[C@H](C)[C@H](NC(=O)[C@H](CCC(=O)O)NC(=O)[C@H](CO)NC(=O)[C@@H](NC(=O)[C@@H](N)CO)C(C)C)C(=O)N[C@@H](CCC(N)=O)C(=O)N[C@@H](CC(C)C)C(=O)N[C@@H](CCSC)C(=O)N[C@@H](Cc1cnc[nH]1)C(=O)N[C@@H](CC(N)=O)C(=O)N[C@@H](CC(C)C)C(=O)NCC(=O)N[C@@H](CCCCN)C(=O)N[C@@H](Cc1cnc[nH]1)C(=O)N[C@@H](CC(C)C)C(=O)N[C@@H](CC(N)=O)C(=O)N[C@@H](CO)C(=O)N[C@@H](CCSC)C(=O)N[C@@H](CCC(=O)O)C(=O)N[C@@H](CCCN=C(N)N)C(=O)N[C@H](C(=O)N[C@@H](CCC(=O)O)C(=O)N[C@@H](Cc1c[nH]c2ccccc12)C(=O)N[C@@H](CC(C)C)C(=O)N[C@@H](CCCN=C(N)N)C(=O)N[C@@H](CCCCN)C(=O)N[C@@H](CCCCN)C(=O)N[C@@H](CC(C)C)C(=O)N[C@@H](CCC(N)=O)C(=O)N[C@@H](CC(=O)O)C(=O)N[C@H](C(=O)N[C@@H](Cc1cnc[nH]1)C(=O)N[C@@H](CC(N)=O)C(=O)N[C@@H](Cc1ccccc1)C(=O)O)C(C)C)C(C)C [teriparatide]
- plasma cAMP levels ([3]; oral administration of 680 μg teriparatide, compared with subcutaneous 20 μg): increased plasma cAMP levels to a similar degree
- plasma cAMP levels ([3]; subcutaneous administration of 20 μg teriparatide, compared with oral 680 μg): increased plasma cAMP levels to a similar degree

Source: US20180036382A1, “FORMULATIONS FOR ORAL ADMINISTRATION OF ACTIVE AGENTS WITH CONTROLLED ABSORPTION PROFILE” (Entera Bio Ltd., priority 2015, published 2018)
